Data reported in PubChem BioAssay (NCI).
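Assay format: 96-well plates, 48-hour exposure. GI50: concentration for 50% inhibition of growth. TGI: total growth inhibition.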

How the values were obtained:
Test in all cases: NCI-60 cell line screen, 48 h
[1] = test system: NCI-H23 lung
[2] = test system: K-562 leukemia
[3] = test system: BT-549 breast
[4] = test system: ACHN renal
[5] = test system: MALME-3M melanoma
[6] = test system: SN12C renal
[7] = test system: COLO 205 colon
[8] = test system: SW-620 colon
[9] = test system: DU-145 prostate
[10] = test system: HCT-116 colon
[11] = test system: HT29 colon
[12] = test system: SF-295 CNS
[13] = test system: PC-3 prostate
[14] = test system: MDA-MB-468 breast
[15] = test system: SNB-75 CNS
[16] = test system: RPMI-8226 leukemia
[17] = test system: OVCAR-5 ovarian
[18] = test system: MOLT-4 leukemia
[19] = test system: NCI/ADR-RES ovarian
[20] = test system: UACC-62 melanoma
[21] = test system: SK-MEL-5 melanoma
[22] = test system: KM12 colon
[23] = test system: U251 CNS
[24] = test system: A549 NSCLC
[25] = test system: SR leukemia
[26] = test system: MCF7 breast
[27] = test system: SK-MEL-28 melanoma
[28] = test system: HCT-15 colon
[29] = test system: UACC-257 melanoma
[30] = test system: SNB-19 CNS
[31] = test system: SF-268 CNS
[32] = test system: SK-OV-3 ovarian
[33] = test system: NCI-H460 lung
[34] = test system: UO-31 renal
[35] = test system: 786-0 renal
[36] = test system: HCC-2998 colon
[37] = test system: HL-60(TB) leukemia
[38] = test system: LOX IMVI melanoma
[39] = test system: SF-539 CNS
[40] = test system: MDA-MB-435
[41] = test system: IGROV1 ovarian
[42] = test system: SK-MEL-2 melanoma
[43] = test system: NCI-H226 lung
[44] = test system: M14 melanoma
[45] = test system: T-47D breast
[46] = test system: CCRF-CEM leukemia
[47] = test system: TK-10 renal
[48] = test system: OVCAR-8 ovarian
[49] = test system: OVCAR-4 ovarian
[50] = test system: OVCAR-3 ovarian
[51] = test system: A498 renal
[52] = test system: MDA-MB-231 breast
[53] = test system: CAKI-1 renal
[54] = test system: HOP-92 NSCLC
[55] = test system: EKVX NSCLC
[56] = test system: RXF 393 renal
[57] = test system: HOP-62 NSCLC
[58] = test system: HS 578T breast
[59] = test system: NCI-H522 lung

COc1ccc(/C=C/c2nc3ccccc3c(=O)n2CC(=O)Nc2ccccc2)cc1
GI50 [1]: 6.01 µM
TGI [1]: > 62.4 µM
GI50 [2]: > 100 µM
TGI [2]: > 100 µM
GI50 [3]: > 74.6 µM
TGI [3]: > 100 µM
GI50 [4]: 0.718 µM
TGI [4]: 2.49 µM
GI50 [5]: 5.2 µM
TGI [5]: 55.9 µM
GI50 [6]: 1.82 µM
TGI [6]: > 36.6 µM
GI50 [7]: > 37.3 µM
TGI [7]: > 77.7 µM
GI50 [8]: > 21.3 µM
TGI [8]: > 100 µM
GI50 [9]: > 100 µM
TGI [9]: > 100 µM
GI50 [10]: 1.26 µM
TGI [10]: > 39.4 µM
GI50 [11]: > 100 µM
TGI [11]: > 100 µM
GI50 [12]: 2.48 µM
TGI [12]: 30.8 µM
GI50 [13]: > 100 µM
TGI [13]: > 100 µM
GI50 [14]: 6.23 µM
TGI [14]: > 53.7 µM
GI50 [15]: 1.27 µM
TGI [15]: 4.97 µM
GI50 [16]: > 100 µM
TGI [16]: > 100 µM
GI50 [17]: 6.47 µM
TGI [17]: > 100 µM
GI50 [18]: > 100 µM
TGI [18]: > 100 µM
GI50 [19]: 4.64 µM
TGI [19]: > 100 µM
GI50 [20]: > 62.4 µM
TGI [20]: > 100 µM
GI50 [21]: > 91.4 µM
TGI [21]: > 100 µM
GI50 [22]: > 100 µM
TGI [22]: > 100 µM
GI50 [23]: 0.972 µM
TGI [23]: 10.9 µM
GI50 [24]: 0.731 µM
TGI [24]: > 42.7 µM
GI50 [25]: > 100 µM
TGI [25]: > 100 µM
GI50 [26]: > 26 µM
TGI [26]: > 100 µM
GI50 [27]: > 100 µM
TGI [27]: > 100 µM
GI50 [28]: > 100 µM
TGI [28]: > 100 µM
GI50 [29]: > 85.1 µM
TGI [29]: > 100 µM
GI50 [30]: 3.74 µM
TGI [30]: > 73.9 µM
GI50 [31]: 19.1 µM
TGI [31]: > 100 µM
GI50 [32]: 2.98 µM
TGI [32]: 18.7 µM
GI50 [33]: 2.25 µM
TGI [33]: > 100 µM
GI50 [34]: 1.44 µM
TGI [34]: 3.64 µM
GI50 [35]: 1.19 µM
TGI [35]: 3.18 µM
GI50 [36]: > 100 µM
TGI [36]: > 100 µM
GI50 [37]: > 100 µM
TGI [37]: > 100 µM
GI50 [38]: 4.38 µM
TGI [38]: > 100 µM
GI50 [39]: 3.42 µM
TGI [39]: 14.5 µM
GI50 [40]: > 93.4 µM
TGI [40]: > 100 µM
GI50 [41]: 12.6 µM
TGI [41]: > 100 µM
GI50 [42]: > 77.8 µM
TGI [42]: > 100 µM
GI50 [43]: 2.42 µM
TGI [43]: 16.4 µM
GI50 [44]: 27 µM
TGI [44]: > 51 µM
GI50 [45]: 1.8 µM
TGI [45]: > 28.9 µM
GI50 [46]: > 100 µM
TGI [46]: > 100 µM
GI50 [47]: 2.05 µM
TGI [47]: 5.43 µM
GI50 [48]: 4.74 µM
TGI [48]: > 100 µM
GI50 [49]: 0.734 µM
GI50 [50]: 3.91 µM
TGI [50]: > 100 µM
GI50 [51]: 2.23 µM
TGI [51]: 5.2 µM
GI50 [52]: 2.01 µM
TGI [52]: 7.54 µM
GI50 [53]: 1.7 µM
TGI [53]: > 23.9 µM
GI50 [54]: 2.78 µM
TGI [54]: 13.3 µM
GI50 [55]: > 69.4 µM
TGI [55]: > 100 µM
GI50 [56]: 2.23 µM
TGI [56]: 10.6 µM
GI50 [57]: 4.31 µM
TGI [57]: 19.2 µM
GI50 [58]: 2.79 µM
TGI [58]: > 92.5 µM
GI50 [59]: 16.8 µM
TGI [59]: > 100 µM
